Test results as given in patent US9844543B2, “Method of treating or preventing hyperlipidemia with caffeamide derivatives” (priority 2015, dated 2017).

Columns and labels:
Type in all cases: in vivo, C57BL/6J mice
[1] = Blood parameters assay (TG, FFA, TC, adiponectin, leptin) in high-fat diet-fed mice; conditions: 0.01 g/kg/day oral
Procedure: All animal procedures were performed as per guidelines provided by the Institutional Animal Care and Use Committee of Central Taiwan University of Science and Technology. Firstly, C57BL/6J mice (4-5 weeks old) were purchased from the National Laboratory Animal Breeding and Research Center, National Science Council, Taiwan, and were maintained on a 12-hour light/dark cycle (light cycle: 7 a.m. to 7 p.m.). […] After 8-week diet-induction period, the high-fat treated mice were randomly subdivided into four groups (n=9 per group), namely, control group (CON), high-fat control group (HF), TS group (including T1 and T2, representing mice treated with the compound of the present invention using a dosage of 10 mg/kg/day and 20 mg/kg/day, respectively), rosiglitazone treated group (Rosi; 1% methylcellulose 10 mg/kg body weight, obtained from GlaxoSmithKline, product number: BRL49653 C). TS and Rosi group were administrated through oral gavage one time per day from the 9th to the 12th week of the experiment while the mice were still on the high-fat diet. On the other hand, CON and HF groups were treated with vehicle only. The body weight was measured weekly throughout the experimentation. By the end of the experimentation, food was deprived from the mice (from 10 p.m. to 10 a.m.) On the next day (the 85th day), all mice were sacrificed for blood and tissue collection and analysis. The mice were untreated with TS or Rosi at the 85th day. Livers and white adipose tissue (WATs, including epididymal mesenteric, and retroperitoneal WAT) were excised according to the defined anatomical landmarks, and the weight of the tissues was measured. Tissues were immediately frozen using liqid nitrogen and then kept at −80° C. for the analysis of target gene expression. Heparin (30 units/mL, Sigma) was added into blood sample. Plasma samples were collected by centrifugation at […] for 15 minutes at 4° C. The separation of the plasma was finished within 30 minutes. Plasma was obtained for leptin assay.
Blood samples (0.8 mL) were collected from the retro-orbital sinus of fasting mice and the plasma triglycerides (TG), total cholesterol (TC), and free fatty acids (FFA) were analyzed using commercial assay kits according to the manufacture's directions (Triglycerides-E test, Cholesterol-E test, and FFA-C test, Wako Pure Chemical, Osaka, Japan).
The levels of adiponectin and leptin were analyzed by ELISA using commercial assay kits according to manufacture's directions (mouse/rat adiponectin ELISA kit, B-Bridege International, GmbH, Germany, and mouse leptin ELISA kit, Morinaga, Yokohama, Japan).

[2] = test system: adipocytes from epididymal white adipose tissue; assay: Histopathology of epididymal white adipose tissue (adipocyte size); conditions: high-fat diet mice, 10 mg/kg/day oral; HF 6765.87, CON 3263.78
Procedure: (§1) All animal procedures were performed as per guidelines provided by the Institutional Animal Care and Use Committee of Central Taiwan University of Science and Technology. Firstly, C57BL/6J mice (4-5 weeks old) were purchased from the National Laboratory Animal Breeding and Research Center, National Science Council, Taiwan, and were maintained on a 12-hour light/dark cycle (light cycle: 7 a.m. to 7 p.m.). Seven days after acclimation, the C57BL/6J mice were divided randomly into two groups: the control group (CON, n=9) was fed with low-fat diet (Diet 12450B, Research Diets, Inc., New Brunswick, N.J. 08901, USA), whereas the experimental group (n=36) was fed with a 45% high-fat diet (Diet 12451, Research Diets, Inc., New Brunswick, N.J. 08901, USA) for 12 weeks. The low-fat diet was composed of protein 20%, carbohydrate 70% and fat 10%, whereas the high-fat diet was composed of protein 20%, carbohydrate 35%, and fat 45% (of total energy, % kcal). […] The body weight was measured weekly throughout the experimentation. […] Livers and white adipose tissue (WATs, including epididymal mesenteric, and retroperitoneal WAT) were excised according to the defined anatomical landmarks, and the weight of the tissues was measured. […]

[3] = Measurement of hepatic lipids in high-fat diet-fed mice; conditions: 0.01 g/kg/day oral, week 12
Procedure: as §1, with “weeks.” for “weeks. The low-fat diet was composed of protein 20%, carbohydrate 70% and fat 10%, whereas the high-fat diet was composed of protein 20%, carbohydrate 35%, and fat 45% (of total energy, % kcal).”
For hepatic lipid extraction, a 0.375 g liver samples were homogenized with 1 mL distill water for 5 minutes. The dried pellet was finally resuspended in 0.5 mL ethanol and analyzed using a triglycerides kit as used for analyzing the serum lipids set forth above.

[4] = Body weight, weight gain and absolute tissue weights in high-fat diet-fed mice
Procedure: All animal procedures were performed as per guidelines provided by the Institutional Animal Care and Use Committee of Central Taiwan University of Science and Technology. Firstly, C57BL/6J mice (4-5 weeks old) were purchased from the National Laboratory Animal Breeding and Research Center, National Science Council, Taiwan, and were maintained on a 12-hour light/dark cycle (light cycle: 7 a.m. to 7 p.m.). Seven days after acclimation, the C57BL/6J mice were divided randomly into two groups: the control group (CON, n=9) was fed with low-fat diet (Diet 12450B, Research Diets, Inc., New Brunswick, N.J. 08901, USA), whereas the experimental group (n=36) was fed with a 45% high-fat diet (Diet 12451, Research Diets, Inc., New Brunswick, N.J. 08901, USA) for 12 weeks. The low-fat diet was composed of protein 20%, carbohydrate 70% and fat 10%, whereas the high-fat diet was composed of protein 20%, carbohydrate 35%, and fat 45% (of total energy, % kcal). After 8-week diet-induction period, the high-fat treated mice were randomly subdivided into four groups (n=9 per group), namely, control group (CON), high-fat control group (HF), TS group (including T1 and T2, representing mice treated with the compound of the present invention using a dosage of 10 mg/kg/day and 20 mg/kg/day, respectively), rosiglitazone treated group (Rosi; 1% methylcellulose 10 mg/kg body weight, obtained from GlaxoSmithKline, product number: BRL49653 C). TS and Rosi group were administrated through oral gavage one time per day from the 9th to the 12th week of the experiment while the mice were still on the high-fat diet. On the other hand, CON and HF groups were treated with vehicle only. The body weight was measured weekly throughout the experimentation. By the end of the experimentation, food was deprived from the mice (from 10 p.m. to 10 a.m.) On the next day (the 85th day), all mice were sacrificed for blood and tissue collection and analysis. The mice were untreated with TS or Rosi at the 85th day. Livers and white adipose tissue (WATs, including epididymal mesenteric, and retroperitoneal WAT) were excised according to the defined anatomical landmarks, and the weight of the tissues was measured. Tissues were immediately frozen using liqid nitrogen and then kept at −80° C. for the analysis of target gene expression. Heparin (30 units/mL, Sigma) was added into blood sample. Plasma samples were collected by centrifugation at […] for 15 minutes at 4° C. The separation of the plasma was finished within 30 minutes. Plasma was obtained for leptin assay.
Body weight of mice was monitored and measured daily at the same time throughout the experimentation. The differences between the body weight of the next day and the former day is defined as body weight gain. The pellet food was weighed and followed by being placed in the cage food container. Unconsumed pellet high-fat food was discarded each day and fresh pellet of high-fat diet was provided to ensure consistent food quality throughout the experimentation. The high-fat food was stored at 4° C.

[5] = 0.01 g/kg/day oral gavage weeks 9-12

Compound: CN(CCOc1ccc(CC2SC(=O)NC2=O)cc1)c1ccccn1 (centres unmarked) [Rosi, rosiglitazone]
- Blood Adiponectin ([1]; week 12): 7.51 ± 0.53 ng/mL
- Blood FFA ([1]; week 12): 1.52 ± 0.16 meq/L
- Blood Leptin ([1]; week 12): 2.063 ± 0.111 µg/mL
- Blood TC ([1]; week 12): 134.9 ± 3.5 mg/dL
- Blood TG ([1]; week 12, fasting): 81.8 ± 5.8 mg/dL
- average area of the cut of the adipocytes (epididymal white adipose tissue) [2]: 4600 µm²
- Liver lipids: Total lipid [3]: 60.2 ± 5.4 mg/g
- Liver lipids: Triacylglycerol [3]: 42.6 ± 5.8 µmol/g
- Absolute tissue weight BAT [4, 5]: 0.210 ± 0.023 g
- Absolute tissue weight MWAT [4, 5]: 0.238 ± 0.033 g
- Absolute tissue weight RWAT [4, 5]: 0.334 ± 0.057 g
- Absolute tissue weight Visceral fat [4, 5]: 1.330 ± 0.138 g
- Absolute tissue weight EWAT ([4]; 0.01 g/kg/day oral gavage weeks 9-12, mean ± S.E. n=9): 1.003 ± 0.103 g
- Weight gain ([4]; 0.01 g/kg/day oral gavage weeks 9-12, week 12): 0.91 ± 1.45 g
